Tests used:
WDR5 [1] = molecular target: T1, WDR5 (Homo sapiens, UniProt P61964); assay: Surface Plasmon Resonance (SPR) assay; format: binding; design: Full length WDR5 with an N-terminal His tag and C-terminal AviTag; His tag (N); made in house; host or cells: E. coli; conditions: read-out: SPR Kd
Summary of the method: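 Full-length biotinylated WDR5 (N-His, C-AviTag, E. coli) captured (~3000 RU) on streptavidin SA chip; Biacore T200. HBS-EP pH 7.4 plus 5% DMSO running buffer, 40 μl/min.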

MV4-11 cells = assay: Cell proliferation assay (ATPlite); format: cell-based; conditions: Homo sapiens, 120 h; MV4-11 cells, five days; read-out: GI MV411 EC50
Summary of the method: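 Cells seeded at 1,000/well in Alpha-MEM with 10% FBS, treated with compound over a 10-point range (top 10 μM) or DMSO. Grown five days at 37° C, 5% CO2; viability by ATPlite luminescence.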

WDR5 [2] = molecular target: T1, WDR5; assay: Fluorescence Polarization (FP) binding assay
Summary of the method: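 Displacement of fluorescein-labelled H3 (1-15) (30 nM, with 0.3 μM WDR5) or 9-Ala-FAM (20 nM, with 0.05 μM WDR5) in 80 mM sodium phosphate pH 6.5, 20 mM KCl, 0.008% Triton X-100. FP read at 485/528 nm (H3) or 480/540 nm (9-Ala-FAM); Kdisp from hyperbolic fit, mean of quadruplicates.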

Row | SMILES | Kd (WDR5 [1]) [nM] | EC50 (MV4-11 cells) [nM] | IC50 (WDR5 [2]) [nM]
1 | C[C@H]1CN(c2cc(F)c(C3=CCN(c4ccnc(C#N)n4)CC3)c(F)c2NC(=O)c2c[nH]c(=O)cc2C(F)F)CCN1C [Example 108, (S)—N-(3-(1-(2-cyanopyrimidin-4-yl)-1,2,3,6-tetrahydropyridin-4-yl)-6-(3,4-dimethylpiperazin-1-yl)-2,4-difluorophenyl)-4-(difluoromethyl)-6-oxo-1,6-dihydropyridine-3-carboxamide] | 1.65 | 29.9 | 14.2
2 | C[C@@H]1CN(c2ncc(-c3c(F)cc(N4C[C@@H](C)N(C)[C@@H](C)C4)c(NC(=O)c4ccc(F)cc4C(F)F)c3F)cn2)C[C@H](C)O1 [Example 109, 2-(Difluoromethyl)-N-(3-(2-((2S,6R)-2,6-dimethylmorpholino)pyrimidin-5-yl)-2,4-difluoro-6-((3S,5R)-3,4,5-trimethylpiperazin-1-yl)phenyl)-4-fluorobenzamide Formic Acid] | 2.59 | 7.34 | 14.4
3 | C[C@@H]1CN(c2ncc(-c3c(F)cc(N4CCN(C)[C@@H](C)C4)c(NC(=O)c4ccc(F)cc4C(F)F)c3F)cn2)C[C@H](C)O1 [Example 110, 2-(Difluoromethyl)-N-(3-(2-((2S,6R)-2,6-dimethylmorpholino)pyrimidin-5-yl)-6-((S)-3,4-dimethylpiperazin-1-yl)-2,4-difluorophenyl)-4-fluorobenzamide formic acid] | 1.94 | 33.2 | 10.9
4 | C[C@@H]1CN(c2ncc(-c3c(F)cc(N4C[C@@H](C)N(C)[C@@H](C)C4)c(NC(=O)c4c[nH]c(=O)cc4C(F)F)c3F)cn2)C[C@H](C)O1 [Example 111, 4-(Difluoromethyl)-N-(3-(2-((2S,6R)-2,6-dimethylmorpholino)pyrimidin-5-yl)-2,4-difluoro-6-((3S,5R)-3,4,5-trimethylpiperazin-1-yl)phenyl)-6-oxo-1,6-dihydropyridine-3-carboxamide] | 1.29 | 9.48 | 14.1
5 | C[C@H]1CN(c2cc(F)c(C3=CCN(c4ccnc(C#N)n4)CC3)c(F)c2NC(=O)c2c[nH]c(=O)cc2C(F)(F)F)CCN1C [Example 112, (S)—N-(3-(1-(2-cyanopyrimidin-4-yl)-1,2,3,6-tetrahydropyridin-4-yl)-6-(3,4-dimethylpiperazin-1-yl)-2,4-difluorophenyl)-6-oxo-4-(trifluoromethyl)-1,6-dihydropyridine-3-carboxamide] | 2.4 | 35 | 15
6 | C[C@H]1CN(c2cc(F)c(C3=CCCN(c4ccnc(C#N)n4)C3)c(F)c2NC(=O)c2c[nH]c(=O)cc2C(F)F)CCN1C [Example 113, (S)—N-(3-(1-(2-cyanopyrimidin-4-yl)-1,2,5,6-tetrahydropyridin-3-yl)-6-(3,4-dimethylpiperazin-1-yl)-2,4-difluorophenyl)-4-(difluoromethyl)-6-oxo-1,6-dihydropyridine-3-carboxamide] | 1.99 | 85.9 | 14.8
7 | C[C@H]1CN(c2cc(F)c(C3=CCCN(c4ccnc(C#N)n4)C3)c(F)c2NC(=O)c2c[nH]c(=O)cc2C(F)(F)F)CCN1C [Example 114, (S)—N-(3-(1-(2-cyanopyrimidin-4-yl)-1,2,5,6-tetrahydropyridin-3-yl)-6-(3,4-dimethylpiperazin-1-yl)-2,4-difluorophenyl)-6-oxo-4-(trifluoromethyl)-1,6-dihydropyridine-3-carboxamide] | 2.42 | 36.6 | 15.9
8 | C[C@@H]1CN(c2ncc(-c3c(F)cc(N4CCN(C)[C@@H](C)C4)c(NC(=O)c4c[nH]c(=O)cc4C(F)F)c3F)cn2)C[C@@H](C)O1 [Example 115, 4-(Difluoromethyl)-N-(3-(2-((2R,6R)-2,6-dimethylmorpholino)pyrimidin-5-yl)-6-((S)-3,4-dimethylpiperazin-1-yl)-2,4-difluorophenyl)-6-oxo-1,6-dihydropyridine-3-carboxamide] | 0.7 | 9.38 | 13.8
9 | C[C@@H]1CN(c2ncc(-c3c(F)cc(N4C[C@@H](C)N(C)[C@@H](C)C4)c(NC(=O)c4c[nH]c(=O)cc4C(F)F)c3F)cn2)C[C@@H](C)O1 [Example 116, 4-(Difluoromethyl)-N-(3-(2-((2R,6R)-2,6-dimethylmorpholino)pyrimidin-5-yl)-2,4-difluoro-6-((3S,5R)-3,4,5-trimethylpiperazin-1-yl)phenyl)-6-oxo-1,6-dihydropyridine-3-carboxamide] | 1.12 | 36.5 | 15.2
10 | CC(C)[C@@H]1CN(c2ncc(-c3c(F)cc(N4CCN(C)[C@@H](C)C4)c(NC(=O)c4c[nH]c(=O)cc4C(F)F)c3F)cn2)CCO1 [Example 117, 4-(Difluoromethyl)-N-(6-((S)-3,4-dimethylpiperazin-1-yl)-2,4-difluoro-3-(2-((R)-2-isopropylmorpholino)pyrimidin-5-yl)phenyl)-6-oxo-1,6-dihydropyridine-3-carboxamide] | 0.84 | 28.2 | 13.6
11 | CC(C)[C@@H]1CN(c2ncc(-c3c(F)cc(N4C[C@@H](C)N(C)[C@@H](C)C4)c(NC(=O)c4c[nH]c(=O)cc4C(F)F)c3F)cn2)CCO1 [Example 118, N-(2,4-difluoro-3-(2-((R)-2-isopropylmorpholino)pyrimidin-5-yl)-6-((3S,5R)-3,4,5-trimethylpiperazin-1-yl)phenyl)-4-(difluoromethyl)-6-oxo-1,6-dihydropyridine-3-carboxamide] | 0.95 | 12.2 | 12.2
12 | C[C@H]1CN(c2ncc(-c3c(F)cc(N4CCN(C)[C@@H](C)C4)c(NC(=O)c4c[nH]c(=O)cc4C(F)F)c3F)cn2)C[C@H](C)O1 [Example 119, 4-(Difluoromethyl)-N-(3-(2-((2S,6S)-2,6-dimethylmorpholino)pyrimidin-5-yl)-6-((S)-3,4-dimethylpiperazin-1-yl)-2,4-difluorophenyl)-6-oxo-1,6-dihydropyridine-3-carboxamide] | 0.9 | 20.4 | 11.7
13 | C[C@@H]1CN(c2cc(F)c(-c3cnc(N4C[C@H](C)O[C@@H](C)C4)nc3)c(F)c2NC(=O)c2c[nH]c(=O)cc2C(F)F)C[C@H](C)N1C [Example 120, 4-(Difluoromethyl)-N-(3-(2-((2S,6S)-2,6-dimethylmorpholino)pyrimidin-5-yl)-2,4-difluoro-6-((3S,5R)-3,4,5-trimethylpiperazin-1-yl)phenyl)-6-oxo-1,6-dihydropyridine-3-carboxamide] | 1.35 | 2.07 | 12
14 | CC(C)[C@H]1CN(c2ncc(-c3c(F)cc(N4CCN(C)[C@@H](C)C4)c(NC(=O)c4c[nH]c(=O)cc4C(F)F)c3F)cn2)CCO1 [Example 121, 4-(Difluoromethyl)-N-(6-((S)-3,4-dimethylpiperazin-1-yl)-2,4-difluoro-3-(2-((S)-2-isopropylmorpholino)pyrimidin-5-yl)phenyl)-6-oxo-1,6-dihydropyridine-3-carboxamide] | 1.07 | 15.7 | 11.9
15 | CC(C)[C@H]1CN(c2ncc(-c3c(F)cc(N4C[C@@H](C)N(C)[C@@H](C)C4)c(NC(=O)c4c[nH]c(=O)cc4C(F)F)c3F)cn2)CCO1 [Example 122, N-(2,4-Difluoro-3-(2-((S)-2-isopropylmorpholino)pyrimidin-5-yl)-6-((3S,5R)-3,4,5-trimethylpiperazin-1-yl)phenyl)-4-(difluoromethyl)-6-oxo-1,6-dihydropyridine-3-carboxamide] | 1.98 | 22.1 | 12.5
16 | CC(C)[C@@H]1CN(c2nccc(-c3c(F)cc(N4CCN(C)[C@@H](C)C4)c(NC(=O)c4c[nH]c(=O)cc4C(F)(F)F)c3F)n2)CCO1 [Example 123, N-(6-((S)-3,4-dimethylpiperazin-1-yl)-2,4-difluoro-3-(2-((R)-2-isopropylmorpholino)pyrimidin-4-yl)phenyl)-6-oxo-4-(trifluoromethyl)-1,6-dihydropyridine-3-carboxamide] | 1.68 | 61.8 | 14.9
17 | CC(C)[C@@H]1CN(c2nccc(-c3c(F)cc(N4CCN(C)[C@@H](C)C4)c(NC(=O)c4c[nH]c(=O)cc4C(F)F)c3F)n2)CCO1 [Example 124, 4-(Difluoromethyl)-N-(6-((S)-3,4-dimethylpiperazin-1-yl)-2,4-difluoro-3-(2-((R)-2-isopropylmorpholino)pyrimidin-4-yl)phenyl)-6-oxo-1,6-dihydropyridine-3-carboxamide] | 0.8 | 55.9 | 12.4
18 | C[C@@H]1CN(c2cc(F)c(-c3cnc(N4CCO[C@@H](C)C4)nc3)c(F)c2NC(=O)c2c[nH]c(=O)cc2C(F)F)C[C@H](C)N1C [Example 125, N-(2,4-difluoro-3-(2-((S)-2-methylmorpholino)pyrimidin-5-yl)-6-((3S,5R)-3,4,5-trimethylpiperazin-1-yl)phenyl)-4-(difluoromethyl)-6-oxo-1,6-dihydropyridine-3-carboxamide] | 0.69 | 19.4 | 11.9
